This note sets out measurements from patent US9932314B2, “Pyrazole compounds and their use as T-type calcium channel blockers” (IDORSIA PHARMACEUTICALS LTD, priority 2015, dated 2018).

Each structure is given as a SMILES string.

The target in this test is T1, voltage-dependent T-type calcium channel subunit alpha-1G (Cav3.2) (Homo sapiens, UniProt O95180).
T1 construct: expressed in transfected cells; host or cells: HEK293
T1 sequence (O95180 whole entry): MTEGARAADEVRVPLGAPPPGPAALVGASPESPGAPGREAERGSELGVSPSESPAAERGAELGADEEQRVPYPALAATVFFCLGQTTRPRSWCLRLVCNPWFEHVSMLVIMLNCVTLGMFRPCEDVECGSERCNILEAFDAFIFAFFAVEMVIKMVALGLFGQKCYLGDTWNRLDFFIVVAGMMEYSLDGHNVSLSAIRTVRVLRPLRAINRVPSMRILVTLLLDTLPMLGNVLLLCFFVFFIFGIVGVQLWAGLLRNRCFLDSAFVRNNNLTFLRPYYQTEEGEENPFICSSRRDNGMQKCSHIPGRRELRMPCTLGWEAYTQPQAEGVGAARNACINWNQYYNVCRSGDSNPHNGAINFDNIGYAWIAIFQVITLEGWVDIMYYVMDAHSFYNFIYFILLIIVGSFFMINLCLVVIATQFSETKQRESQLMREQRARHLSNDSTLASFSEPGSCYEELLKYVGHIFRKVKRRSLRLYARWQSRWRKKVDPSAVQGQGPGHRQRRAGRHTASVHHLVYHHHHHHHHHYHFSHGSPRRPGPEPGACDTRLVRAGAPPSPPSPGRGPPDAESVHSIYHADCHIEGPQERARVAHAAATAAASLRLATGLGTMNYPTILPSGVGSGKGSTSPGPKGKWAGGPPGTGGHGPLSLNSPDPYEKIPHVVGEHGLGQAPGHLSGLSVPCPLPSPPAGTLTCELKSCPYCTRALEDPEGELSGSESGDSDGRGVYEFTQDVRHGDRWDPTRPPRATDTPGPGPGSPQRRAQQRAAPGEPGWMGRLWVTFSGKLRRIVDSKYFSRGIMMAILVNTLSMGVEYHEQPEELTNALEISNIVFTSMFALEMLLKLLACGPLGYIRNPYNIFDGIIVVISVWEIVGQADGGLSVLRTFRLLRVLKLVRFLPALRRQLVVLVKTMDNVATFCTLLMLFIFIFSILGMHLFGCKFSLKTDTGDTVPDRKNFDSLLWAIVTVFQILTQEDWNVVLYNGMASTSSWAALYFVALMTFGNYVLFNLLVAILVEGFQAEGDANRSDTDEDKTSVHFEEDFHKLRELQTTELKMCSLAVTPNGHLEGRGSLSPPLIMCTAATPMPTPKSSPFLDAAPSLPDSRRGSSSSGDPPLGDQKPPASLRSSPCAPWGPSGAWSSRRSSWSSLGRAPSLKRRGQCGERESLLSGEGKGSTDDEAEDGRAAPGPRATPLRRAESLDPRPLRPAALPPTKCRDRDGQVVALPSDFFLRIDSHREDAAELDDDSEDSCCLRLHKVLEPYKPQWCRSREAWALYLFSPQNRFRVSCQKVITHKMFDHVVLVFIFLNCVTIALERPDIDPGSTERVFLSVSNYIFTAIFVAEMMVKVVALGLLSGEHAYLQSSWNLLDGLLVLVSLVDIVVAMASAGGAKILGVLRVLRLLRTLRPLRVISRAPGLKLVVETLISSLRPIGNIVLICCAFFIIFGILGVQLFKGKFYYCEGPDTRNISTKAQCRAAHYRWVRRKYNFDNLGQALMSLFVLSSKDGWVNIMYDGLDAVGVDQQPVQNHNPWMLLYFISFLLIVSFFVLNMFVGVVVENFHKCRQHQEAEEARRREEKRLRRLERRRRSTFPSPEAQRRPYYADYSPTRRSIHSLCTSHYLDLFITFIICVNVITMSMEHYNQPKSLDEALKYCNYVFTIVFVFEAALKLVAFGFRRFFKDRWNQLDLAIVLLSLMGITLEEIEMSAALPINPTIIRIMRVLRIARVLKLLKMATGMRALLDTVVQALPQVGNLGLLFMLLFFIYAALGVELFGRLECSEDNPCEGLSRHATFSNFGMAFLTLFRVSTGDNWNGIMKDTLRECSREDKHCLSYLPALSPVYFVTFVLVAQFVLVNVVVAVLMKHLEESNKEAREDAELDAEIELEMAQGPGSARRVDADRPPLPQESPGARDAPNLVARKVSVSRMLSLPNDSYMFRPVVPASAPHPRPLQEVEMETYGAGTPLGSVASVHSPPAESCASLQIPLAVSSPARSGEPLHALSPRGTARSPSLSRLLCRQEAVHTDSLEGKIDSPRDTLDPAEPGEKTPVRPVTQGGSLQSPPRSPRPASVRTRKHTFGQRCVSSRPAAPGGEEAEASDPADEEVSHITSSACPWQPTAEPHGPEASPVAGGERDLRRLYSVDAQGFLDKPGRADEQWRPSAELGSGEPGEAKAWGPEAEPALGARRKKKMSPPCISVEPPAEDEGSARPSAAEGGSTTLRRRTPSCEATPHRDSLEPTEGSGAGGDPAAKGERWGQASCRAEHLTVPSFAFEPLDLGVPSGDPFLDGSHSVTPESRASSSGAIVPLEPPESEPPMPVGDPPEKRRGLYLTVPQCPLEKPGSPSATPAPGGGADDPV
The test can be described thus: FLIPR calcium flux assay, HEK293 cells recombinantly expressing Cav3.2. Particulars: Cav3.2-channel, Fluo-4-AM, 3 min incubation, stimulation with 10 mM CaCl2. In kind it is cell-based. In short, it runs like this:
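HEK293 cells stably expressing human Cav3.2 were loaded with Fluo-4-AM. Compounds diluted in TEAC buffer (pH 7.2) were preincubated for 3 min, then Ca2+ entry was triggered by 10 mM final CaCl2. Inhibition curves were fitted sigmoidally to the area under the fluorescence trace.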
For orientation: A change in cytosolic calcium serves as a functional read-out for many receptors and channels.
For orientation: IC50 means the concentration needed to halve the response being measured. For `CC(C)c1ccc(CC(=O)Nc2ccn(Cc3ccc(C4CC4)cc3)n2)cc1` [Example 192, N-[1-(4-Cyclopropyl-benzyl)-1H-pyrazol-3-yl]-2-(4-isopropyl-phenyl)-acetamide], the 50% inhibitory concentration (IC50) was determined as 133 nM. For the compound `O=C(Cc1ccc(C2CC2)nc1)Nc1ccn(Cc2ccc(Cl)c(F)c2)n1` [Example 193, N-[1-(4-Chloro-3-fluoro-benzyl)-1H-pyrazol-3-yl]-2-(6-cyclopropyl-pyridin-3-yl)-acetamide], the half-inhibitory concentration (IC50) amounted to 78 nM. Then `O=C(Cc1ccc(C2CC2)nc1)Nc1ccn(Cc2ccc(F)c(Cl)c2)n1` [Example 194, N-[1-(3-Chloro-4-fluoro-benzyl)-1H-pyrazol-3-yl]-2-(6-cyclopropyl-pyridin-3-yl)-acetamide], with 61 nM; and `CC(C)c1ccc(CC(=O)Nc2ccn(Cc3ccc(OC4CC4)cc3)n2)cc1` [Example 195, N-[1-(4-Cyclopropoxy-benzyl)-1H-pyrazol-3-yl]-2-(4-isopropyl-phenyl)-acetamide], with 47 nM. Then `N#Cc1ccc(Cn2ccc(NC(=O)Cc3ccc(OC4CCC4)cc3)n2)nc1` [Example 196, N-[1-(5-Cyano-pyridin-2-ylmethyl)-1H-pyrazol-3-yl]-2-(4-cyclobutoxy-phenyl)-acetamide], with 176 nM. Then `N#Cc1ccc(Cn2ccc(NC(=O)Cc3ccc(OC4CCC4)cc3)n2)cc1` [Example 197, N-[1-(4-Cyano-benzyl)-1H-pyrazol-3-yl]-2-(4-cyclobutoxy-phenyl)-acetamide], with 54 nM.

As to `O=C(Cc1ccc(OC2CCC2)cc1)Nc1ccn(Cc2ccc(F)cc2)n1` [Example 198, 2-(4-Cyclobutoxy-phenyl)-N-[1-(4-fluoro-benzyl)-1H-pyrazol-3-yl]-acetamide], the IC50 is 16 nM. Then `COc1ccc(Cn2ccc(NC(=O)Cc3ccc(OC4CCC4)cc3)n2)cc1` [Example 199, 2-(4-Cyclobutoxy-phenyl)-N-[1-(4-methoxy-benzyl)-1H-pyrazol-3-yl]-acetamide], with 74 nM.

`O=C(Cc1ccc(OC2CCC2)cc1)Nc1ccn(Cc2ccc(F)cn2)n1` [Example 200, 2-(4-Cyclobutoxy-phenyl)-N-[1-(5-fluoro-pyridin-2-ylmethyl)-1H-pyrazol-3-yl]-acetamide]: the IC50 turned out to be 67 nM.

Take `O=C(Cc1ccc(N2CCCC2=O)cc1)Nc1ccn(Cc2ccc(F)cc2)n1` [Example 204, N-[1-(4-Fluoro-benzyl)-1H-pyrazol-3-yl]-2-[4-(2-oxo-pyrrolidin-1-yl)-phenyl]-acetamide]: the half-inhibitory concentration (IC50) stood at 79 nM. Then `O=C(Cc1ccc2nccnc2c1)Nc1ccn(Cc2ccc(F)c(F)c2)n1` [Example 205, N-[1-(3,4-Difluoro-benzyl)-1H-pyrazol-3-yl]-2-quinoxalin-6-yl-acetamide], with 288 nM. Then `O=C(Cc1ccc2cccnc2c1)Nc1ccn(Cc2ccc(F)c(F)c2)n1` [Example 206, N-[1-(3,4-Difluoro-benzyl)-1H-pyrazol-3-yl]-2-quinolin-7-yl-acetamide], with 50 nM.

`O=C(Cc1ccc2c(c1)OCC(=O)N2)Nc1ccn(Cc2ccc(F)c(F)c2)n1` [Example 208, N-[1-(3,4-Difluoro-benzyl)-1H-pyrazol-3-yl]-2-(3-oxo-3,4-dihydro-2H-benzo[1,4]oxazin-7-yl)-acetamide]: the IC50 came out at 88 nM. Then `CN1C(=O)COc2cc(CC(=O)Nc3ccn(Cc4ccc(F)c(F)c4)n3)ccc21` [Example 209, N-[1-(3,4-Difluoro-benzyl)-1H-pyrazol-3-yl]-2-(4-methyl-3-oxo-3,4-dihydro-2H-benzo[1,4]oxazin-7-yl)-acetamide], with 53 nM; and `CC(C)c1ccc(CC(=O)Nc2ccn(Cc3ccc(F)c(C#N)n3)n2)cc1` [Example 210, N-[1-(6-Cyano-5-fluoro-pyridin-2-ylmethyl)-1H-pyrazol-3-yl]-2-(4-isopropyl-phenyl)-acetamide], with 8 nM; and `CC(C)c1ccc(CC(=O)Nc2ccn(Cc3ccc(F)c(Cl)n3)n2)cc1` [Example 211, N-[1-(6-Chloro-5-fluoro-pyridin-2-ylmethyl)-1H-pyrazol-3-yl]-2-(4-isopropyl-phenyl)-acetamide], with 3.1 nM. Then `Cn1ccc2cc(CC(=O)Nc3ccn(Cc4ccc(F)cc4)n3)cnc21` [Example 213, N-[1-(4-Fluoro-benzyl)-1H-pyrazol-3-yl]-2-(1-methyl-1H-pyrrolo[2,3-b]pyridin-5-yl)-acetamide], with 31 nM. Then `Cn1ccc2cc(CC(=O)Nc3ccn(Cc4ccc(C#N)cc4)n3)cnc21` [Example 214, N-[1-(4-Cyano-benzyl)-1H-pyrazol-3-yl]-2-(1-methyl-1H-pyrrolo[2,3-b]pyridin-5-yl)-acetamide], with 164 nM; and `COc1ccc(Cn2ccc(NC(=O)Cc3cnc4c(ccn4C)c3)n2)cc1` [Example 215, N-[1-(4-Methoxy-benzyl)-1H-pyrazol-3-yl]-2-(1-methyl-1H-pyrrolo[2,3-b]pyridin-5-yl)-acetamide], with 599 nM. On to `N#Cc1ccc(Cn2ccc(NC(=O)Cc3ccc(C4CC4)nc3)n2)cc1F` [Example 216, N-[1-(4-Cyano-3-fluoro-benzyl)-1H-pyrazol-3-yl]-2-(6-cyclopropyl-pyridin-3-yl)-acetamide], for which the IC50 turned out to be 269 nM. As to `O=C(Cc1ccc2[nH]c(=O)oc2c1)Nc1ccn(Cc2ccc(F)c(F)c2)n1` [Example 218, N-[1-(3,4-Difluoro-benzyl)-1H-pyrazol-3-yl]-2-(2-oxo-2,3-dihydro-benzooxazol-6-yl)-acetamide], the IC50 worked out at 79 nM. With `Cn1ccc2cc(CC(=O)Nc3ccn(Cc4ccc(F)c(F)c4)n3)ccc21` [Example 220, N-[1-(3,4-Difluoro-benzyl)-1H-pyrazol-3-yl]-2-(1-methyl-1H-indol-5-yl)-acetamide], the IC50 was 3.1 nM. As for `Cn1ccc2ccc(CC(=O)Nc3ccn(Cc4ccc(F)c(F)c4)n3)cc21` [Example 221, N-[1-(3,4-Difluoro-benzyl)-1H-pyrazol-3-yl]-2-(1-methyl-1H-indol-6-yl)-acetamide], the IC50 was 5 nM. Then `Cn1ncc2ccc(CC(=O)Nc3ccn(Cc4ccc(F)c(F)c4)n3)cc21` [Example 224, N-[1-(3,4-Difluoro-benzyl)-1H-pyrazol-3-yl]-2-(1-methyl-1H-indazol-6-yl)-acetamide], with 21 nM; and `O=C(Cc1ccc(C2(O)COC2)cc1)Nc1ccn(Cc2ccc(F)c(F)c2)n1` [Example 226, N-[1-(3,4-Difluoro-benzyl)-1H-pyrazol-3-yl]-2-[4-(3-hydroxy-oxetan-3-yl)-phenyl]-acetamide], with 25 nM. `CC1(C)C(=O)Nc2ccc(CC(=O)Nc3ccn(Cc4ccc(F)c(F)c4)n3)cc21` [Example 228, N-[1-(3,4-Difluoro-benzyl)-1H-pyrazol-3-yl]-2-(3,3-dimethyl-2-oxo-2,3-dihydro-1H-indol-5-yl)-acetamide]: the concentration for half-maximal inhibition (IC50) stood at 44 nM. Then `Cn1cnc2cc(CC(=O)Nc3ccn(Cc4ccc(F)c(F)c4)n3)ccc21` [Example 230, N-[1-(3,4-Difluoro-benzyl)-1H-pyrazol-3-yl]-2-(1-methyl-1H-benzoimidazol-5-yl)-acetamide], with 255 nM. Regarding `COC1(c2ccc(CC(=O)Nc3ccn(Cc4ccc(F)c(F)c4)n3)cc2)COC1` [Example 231, N-[1-(3,4-Difluoro-benzyl)-1H-pyrazol-3-yl]-2-[4-(3-methoxy-oxetan-3-yl)-phenyl]-acetamide], the IC50 was 21 nM.
